Laboratory results as given in ChEMBL document CHEMBL5724806, “Unraveling interindividual differences and functional consequences of gut microbial metabolism of immunosuppressants” (2024).

Columns and labels:
Type in all cases: ADME
[1] = The drug is tested on Capnocytophaga ochracea strain: DSM7271 for biotransformation under anaerobic condition. The drug concentrations were measured over 6 timepoints collected between 0 and 12 hours of incubation by liquid-chromatography-coupled mass spectrometry (LC–MS); design: dose 5 uM, timepoint 0, 1.5, 3, 6, 9, 12 hours; conditions: 5 µM
[2] = The drug is tested on Gemella haemolysans strain: DSM107751 for biotransformation under anaerobic condition. The drug concentrations were measured over 6 timepoints collected between 0 and 12 hours of incubation by liquid-chromatography-coupled mass spectrometry (LC–MS); design: dose 5 uM, timepoint 0, 1.5, 3, 6, 9, 12 hours; conditions: 5 µM
[3] = The drug is tested on Lactobacillus reuteri strain: DSM20016 for biotransformation under anaerobic condition. The drug concentrations were measured over 6 timepoints collected between 0 and 12 hours of incubation by liquid-chromatography-coupled mass spectrometry (LC–MS); design: dose 5 uM, timepoint 0, 1.5, 3, 6, 9, 12 hours; conditions: limosilactobacillus reuteri, 5 µM
[4] = The drug is tested on Roseburia intestinalis strain: DSM14610 for biotransformation under anaerobic condition. The drug concentrations were measured over 6 timepoints collected between 0 and 12 hours of incubation by liquid-chromatography-coupled mass spectrometry (LC–MS); design: dose 5 uM, timepoint 0, 1.5, 3, 6, 9, 12 hours; conditions: 5 µM
[5] = The drug is tested on Streptococcus salivarius strain: DSM20560 for biotransformation under anaerobic condition. The drug concentrations were measured over 6 timepoints collected between 0 and 12 hours of incubation by liquid-chromatography-coupled mass spectrometry (LC–MS); design: dose 5 uM, timepoint 0, 1.5, 3, 6, 9, 12 hours; conditions: 5 µM
[6] = The drug is tested on Escherichia coli strain: DSM27469 for biotransformation under anaerobic condition. The drug concentrations were measured over 6 timepoints collected between 0 and 12 hours of incubation by liquid-chromatography-coupled mass spectrometry (LC–MS); design: dose 5 uM, timepoint 0, 1.5, 3, 6, 9, 12 hours; conditions: 5 µM
[7] = The drug is tested on Bifidobacterium longum strain: DSM20088 for biotransformation under microaerobic condition. The drug concentrations were measured over 6 timepoints collected between 0 and 12 hours of incubation by liquid-chromatography-coupled mass spectrometry (LC–MS); design: dose 5 uM, timepoint 0, 1.5, 3, 6, 9, 12 hours; conditions: 5 µM
[8] = The drug is tested on Lactobacillus paracasei strain: ATCC27092 for biotransformation under microaerobic condition. The drug concentrations were measured over 6 timepoints collected between 0 and 12 hours of incubation by liquid-chromatography-coupled mass spectrometry (LC–MS); design: dose 5 uM, timepoint 0, 1.5, 3, 6, 9, 12 hours; conditions: lacticaseibacillus paracasei, 5 µM
[9] = The drug is tested on Lactobacillus reuteri strain: DSM20016 for biotransformation under microaerobic condition. The drug concentrations were measured over 6 timepoints collected between 0 and 12 hours of incubation by liquid-chromatography-coupled mass spectrometry (LC–MS); design: dose 5 uM, timepoint 0, 1.5, 3, 6, 9, 12 hours; conditions: limosilactobacillus reuteri, 5 µM
[10] = The drug is tested on Streptococcus anginosus strain: DSM20563 for biotransformation under microaerobic condition. The drug concentrations were measured over 6 timepoints collected between 0 and 12 hours of incubation by liquid-chromatography-coupled mass spectrometry (LC–MS); design: dose 5 uM, timepoint 0, 1.5, 3, 6, 9, 12 hours; conditions: 5 µM
[11] = The drug is tested on Streptococcus salivarius strain: DSM20560 for biotransformation under microaerobic condition. The drug concentrations were measured over 6 timepoints collected between 0 and 12 hours of incubation by liquid-chromatography-coupled mass spectrometry (LC–MS); design: dose 5 uM, timepoint 0, 1.5, 3, 6, 9, 12 hours; conditions: 5 µM
[12] = The drug is tested on Streptococcus sanguinis strain: DSM20567 for biotransformation under microaerobic condition. The drug concentrations were measured over 6 timepoints collected between 0 and 12 hours of incubation by liquid-chromatography-coupled mass spectrometry (LC–MS); design: dose 5 uM, timepoint 0, 1.5, 3, 6, 9, 12 hours; conditions: 5 µM
[13] = The drug is tested on Escherichia coli strain: DSM27469 for biotransformation under microaerobic condition. The drug concentrations were measured over 6 timepoints collected between 0 and 12 hours of incubation by liquid-chromatography-coupled mass spectrometry (LC–MS); design: dose 5 uM, timepoint 0, 1.5, 3, 6, 9, 12 hours; conditions: 5 µM
[14] = The drug is tested on the gut metagenome community of A-06 with ENA study accession number: PRJEB31790 for biotransformation under anaerobic condition. The drug concentrations were measured over 7 timepoints collected between 0 and 12 hours of incubation by liquid-chromatography-coupled mass spectrometry (LC–MS); design: dose 5 uM, timepoint 0, 0.75, 1.5, 3, 6, 9, 12 hours; conditions: 5 µM
[15] = The drug is tested on the gut metagenome community of T-02 with ENA study accession number: PRJEB31790 for biotransformation under anaerobic condition. The drug concentrations were measured over 7 timepoints collected between 0 and 12 hours of incubation by liquid-chromatography-coupled mass spectrometry (LC–MS); design: dose 5 uM, timepoint 0, 0.75, 1.5, 3, 6, 9, 12 hours; conditions: 5 µM
[16] = The drug is tested on the gut metagenome community of T-03 with ENA study accession number: PRJEB31790 for biotransformation under anaerobic condition. The drug concentrations were measured over 7 timepoints collected between 0 and 12 hours of incubation by liquid-chromatography-coupled mass spectrometry (LC–MS); design: dose 5 uM, timepoint 0, 0.75, 1.5, 3, 6, 9, 12 hours; conditions: 5 µM
[17] = The drug is tested on the gut metagenome community of T-04 with ENA study accession number: PRJEB31790 for biotransformation under anaerobic condition. The drug concentrations were measured over 7 timepoints collected between 0 and 12 hours of incubation by liquid-chromatography-coupled mass spectrometry (LC–MS); design: dose 5 uM, timepoint 0, 0.75, 1.5, 3, 6, 9, 12 hours; conditions: 5 µM
[18] = The drug is tested on the gut metagenome community of A-02 with ENA study accession number: PRJEB31790 for biotransformation under microaerobic condition. The drug concentrations were measured over 7 timepoints collected between 0 and 12 hours of incubation by liquid-chromatography-coupled mass spectrometry (LC–MS); design: dose 5 uM, timepoint 0, 0.75, 1.5, 3, 6, 9, 12 hours; conditions: 5 µM
[19] = The drug is tested on the gut metagenome community of A-05 with ENA study accession number: PRJEB31790 for biotransformation under microaerobic condition. The drug concentrations were measured over 7 timepoints collected between 0 and 12 hours of incubation by liquid-chromatography-coupled mass spectrometry (LC–MS); design: dose 5 uM, timepoint 0, 0.75, 1.5, 3, 6, 9, 12 hours; conditions: 5 µM
[20] = The drug is tested on the gut metagenome community of P-02 with ENA study accession number: PRJEB31790 for biotransformation under microaerobic condition. The drug concentrations were measured over 7 timepoints collected between 0 and 12 hours of incubation by liquid-chromatography-coupled mass spectrometry (LC–MS); design: dose 5 uM, timepoint 0, 0.75, 1.5, 3, 6, 9, 12 hours; conditions: 5 µM
[21] = The drug is tested on the gut metagenome community of P-04 with ENA study accession number: PRJEB31790 for biotransformation under microaerobic condition. The drug concentrations were measured over 7 timepoints collected between 0 and 12 hours of incubation by liquid-chromatography-coupled mass spectrometry (LC–MS); design: dose 5 uM, timepoint 0, 0.75, 1.5, 3, 6, 9, 12 hours; conditions: 5 µM
[22] = The drug is tested on the gut metagenome community of T-01 with ENA study accession number: PRJEB31790 for biotransformation under microaerobic condition. The drug concentrations were measured over 7 timepoints collected between 0 and 12 hours of incubation by liquid-chromatography-coupled mass spectrometry (LC–MS); design: dose 5 uM, timepoint 0, 0.75, 1.5, 3, 6, 9, 12 hours; conditions: 5 µM
[23] = The drug is tested on the gut metagenome community of T-02 with ENA study accession number: PRJEB31790 for biotransformation under microaerobic condition. The drug concentrations were measured over 7 timepoints collected between 0 and 12 hours of incubation by liquid-chromatography-coupled mass spectrometry (LC–MS); design: dose 5 uM, timepoint 0, 0.75, 1.5, 3, 6, 9, 12 hours; conditions: 5 µM
[24] = The drug is tested on the gut metagenome community of T-03 with ENA study accession number: PRJEB31790 for biotransformation under microaerobic condition. The drug concentrations were measured over 7 timepoints collected between 0 and 12 hours of incubation by liquid-chromatography-coupled mass spectrometry (LC–MS); design: dose 5 uM, timepoint 0, 0.75, 1.5, 3, 6, 9, 12 hours; conditions: 5 µM
[25] = The drug is tested on the gut metagenome community of T-04 with ENA study accession number: PRJEB31790 for biotransformation under microaerobic condition. The drug concentrations were measured over 7 timepoints collected between 0 and 12 hours of incubation by liquid-chromatography-coupled mass spectrometry (LC–MS); design: dose 5 uM, timepoint 0, 0.75, 1.5, 3, 6, 9, 12 hours; conditions: 5 µM

Row | Compound | Bacterial Biotransformation [1] | Bacterial Biotransformation [2] | Bacterial Biotransformation [3] | Bacterial Biotransformation [4] | Bacterial Biotransformation [5] | Bacterial Biotransformation [6] | Bacterial Biotransformation [7] | Bacterial Biotransformation [8] | Bacterial Biotransformation [9] | Bacterial Biotransformation [10] | Bacterial Biotransformation [11] | Bacterial Biotransformation [12] | Bacterial Biotransformation [13] | Bacterial Biotransformation [14] | Bacterial Biotransformation [15] | Bacterial Biotransformation [16] | Bacterial Biotransformation [17] | Bacterial Biotransformation [18] | Bacterial Biotransformation [19] | Bacterial Biotransformation [20] | also measured
1 | C[C@H]1C[C@H]2[C@@H]3CCC4=CC(=O)C=C[C@]4(C)[C@@]3(F)[C@@H](O)C[C@]2(C)[C@@]1(O)C(=O)CO [BETAMETHASONE] | Compound NOT metabolized | Compound NOT metabolized | Compound NOT metabolized | Compound NOT metabolized | Compound NOT metabolized | Compound NOT metabolized | Compound NOT metabolized | Compound NOT metabolized | Compound NOT metabolized | Compound NOT metabolized | Compound NOT metabolized | Compound NOT metabolized | Compound NOT metabolized | Compound metabolized | Compound metabolized | Compound NOT metabolized | Compound NOT metabolized | Compound metabolized | Compound NOT metabolized | Compound NOT metabolized | Bacterial Biotransformation [21]: Compound NOT metabolized; Bacterial Biotransformation [22]: Compound NOT metabolized; Bacterial Biotransformation [23]: Compound metabolized; Bacterial Biotransformation [24]: Compound NOT metabolized; Bacterial Biotransformation [25]: Compound NOT metabolized
2 | CCCC1O[C@@H]2C[C@H]3[C@@H]4CCC5=CC(=O)C=C[C@]5(C)[C@H]4[C@@H](O)C[C@]3(C)[C@]2(C(=O)CO)O1 (stereo not given in full) [BUDESONIDE] | Compound NOT metabolized | Compound NOT metabolized | Compound NOT metabolized | Compound NOT metabolized | Compound NOT metabolized | Compound NOT metabolized | Compound NOT metabolized | Compound NOT metabolized | Compound NOT metabolized | Compound NOT metabolized | Compound NOT metabolized | Compound NOT metabolized | Compound NOT metabolized | Compound metabolized | Compound NOT metabolized | Compound NOT metabolized | Compound NOT metabolized | Compound metabolized | Compound metabolized | Compound NOT metabolized | Bacterial Biotransformation [21]: Compound NOT metabolized; Bacterial Biotransformation [22]: Compound metabolized; Bacterial Biotransformation [23]: Compound NOT metabolized; Bacterial Biotransformation [24]: Compound NOT metabolized; Bacterial Biotransformation [25]: Compound metabolized
